From patent US20130071892A1, “PROCESS FOR PRODUCTION OF POLYHYDROXYALKANOIC ACID USING GENETICALLY MODIFIED MICROORGANISM HAVING ENOYL-CoA HYDRATASE GENE INTRODUCED THEREIN” (TOKYO INSTITUTE OF TECHNOLOGY, priority 2010, published 2013) come the findings set out here.

In series [1] the test system is C. necator R form-specific enoyl-CoA hydratase PhaJ3 (phaJ3 gene), wild type, recombinant N-terminal His tag. Description: enoyl-CoA hydratase activity, absorbance decrease at 263 nm, Lineweaver-Burk analysis. In kind it is biochemical, Cupriavidus necator H16. As to conditions: 100 mM Tris-HCl buffer (pH 7.8); for Km: read-out: Michaelis constant Km. An excerpt: (§1) By homology search with a known R form-specific enoyl CoA hydratase, phaJ1 (SEQ ID NO: 2), phaJ2 (SEQ ID NO: 3), and phaJ3 were identified as a presumptive R form-specific enoyl CoA hydratase gene. Then, using the genomic DNA of C. necator as the template, phaJ1 was amplified by a PCR method with the oligonucleotides of the following sequence 19 and sequence 20 as the primers. Similarly, phaJ2 was amplified by a PCR method with the oligonucleotides of sequence 21 and sequence 22 as the primers. Furthermore, phaJ3 was amplified by a PCR method with the oligonucleotides of sequence 23 and sequence 24 as the primers. Using the KOD Plus (manufactured by TOYOBO) for PCR, a cycle comprising 20 seconds at 98° C., 15 seconds at 61° C. and 2 minutes at 68° C. was repeated for 30 cycles.
(§2) Each fragment of phaJ1, phaJ2 and phaJ3 that were amplified and cleaved with NdeI and XhoI in Example 16 was inserted into an expression plasmid pCOLDII (manufactured by Takara-Bio) cleaved with each of NdeI and XhoI. The plasmids obtained were designated as pCOLD-J1, pCOLD-J2 and pCOLD-J3. These expression plasmids have been constructed so as to produce recombinant protein in which a tag sequence (hereinafter referred to as His tag) comprising 6 histidine residues has been added to the amino terminal end. Using pCOLD-J1, pCOLD-J2 and pCOLD-J3, E. coli strain BL21 (DE3) (manufactured by Novagen) was transformed. Each transformant obtained was cultured in 100 mL of LB medium with 100 mg ampicillin at 37° C. for 4 hours, to which isopropyl-thiogalacto-pyranoside (IPTG) was added at a final concentration of 0.5 mM to induce expression, and further culcuted at 15° C. for 24 hours. The cells collected by centrifugation were resuspended in 20 mM sodium phosphate buffer (pH 7.4) containing 30 mM imidazole and 500 mM NaCl, sonic-disrupted and centrifuged to obtain soluble protein fractions.
(§3) This soluble protein fraction was filtered with a filter having a pore size of 0.22 μm. Then, this was subjected to the HisTrap FF crude column (1 ml) (manufactured by GE Healthcare) equalized in advance with 20 mM sodium phosphate buffer (pH 7.4) containing 30 mM imidazole and 500 mM NaCl so as to allow the His tag-carrying protein to be adsorbed. Subsequently, by linearly increasing the imidazole concentration from 30 mM to 500 mM, the adsorbed protein was eluted and recovered to prepare purified enzyme.
(§4) Proteins expressed from the three genes, phaJ1, phaJ2 and phaJ3, derived from C. necator are hereinafter referred to as PhaJ1, PhaJ2 and PhaJ3, respectively. For each of purified recombinant protein products produced in E. coli, the activity of enoyl-CoA hydratase when crotonyl-CoA (4 carbons), 2-hexenoyl-CoA (6 carbons) or 2-octenoyl-CoA (8 carbons) was used as the substrate was determined according to the method described in Non-patent document 4. Thus, the purified enzyme was added to 100 mM Tris-HCl buffer (pH 7.8) containing the substrate (a total volume of 400 μl), and reduction in absorbance at 263 nm was measured with a spectrophotometer. At this time, the measured values obtained by varying the substrate concentration were analyzed by the Lineweaver-Burk plot to calculate the Michaelis constant Km, and the maximum velocity Vmax.

The target in series [2] is C. necator R form-specific enoyl-CoA hydratase PhaJ2 (phaJ2 gene, H16_B0397, SEQ ID NO: 3), wild type, recombinant N-terminal His tag (Cupriavidus necator, UniProt Q0K478). The description is as above. In kind it is biochemical, Cupriavidus necator H16. As to conditions: 100 mM Tris-HCl buffer (pH 7.8).
From the text: as §1, §2, §3, §4

The target in series [3] is T1, C. necator R form-specific enoyl-CoA hydratase PhaJ1 (phaJ1 gene, H16_A1070, SEQ ID NO: 2), wild type, recombinant N-terminal His tag (Cupriavidus necator, UniProt Q0KCR0).
T1 sequence (Q0KCR0 1-158): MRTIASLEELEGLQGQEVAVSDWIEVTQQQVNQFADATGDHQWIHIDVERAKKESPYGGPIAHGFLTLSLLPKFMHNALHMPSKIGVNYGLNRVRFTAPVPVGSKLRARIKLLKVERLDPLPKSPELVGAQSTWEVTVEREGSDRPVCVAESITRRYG
The description is as above. In kind it is biochemical, Cupriavidus necator H16. The settings on record: 100 mM Tris-HCl buffer (pH 7.8).
From the text: as §1, §2, §3, §4

Substrate in series [4]: C/C=C/C(=O)SCCNC(=O)CCNC(=O)[C@H](O)C(C)(C)COP(=O)(O)OP(=O)(O)OC[C@H]1O[C@@H](n2cnc3c(N)ncnc32)[C@H](O)[C@@H]1OP(=O)(O)O
The series is described as above. In kind it is biochemical, Cupriavidus necator H16.
From the text: as §1, §2, §3, §4

Substrate in series [5]: CCC/C=C/C(=O)SCCNC(=O)CCNC(=O)[C@H](O)C(C)(C)COP(=O)(O)OP(=O)(O)OC[C@H]1O[C@@H](n2cnc3c(N)ncnc32)[C@H](O)[C@@H]1OP(=O)(O)O
Described as above. In kind it is biochemical, Cupriavidus necator H16.
From the text: as §1, §2, §3, §4

Substrate in series [6]: CCCCC/C=C/C(=O)SCCNC(=O)CCNC(=O)[C@H](O)C(C)(C)COP(=O)(O)OP(=O)(O)OC[C@H]1O[C@@H](n2cnc3c(N)ncnc32)[C@H](O)[C@@H]1OP(=O)(O)O
The description is as above. In kind it is biochemical, Cupriavidus necator H16.
From the text: as §1, §2, §3, §4

Series [7] in a line: stereoselectivity of the hydration reaction, coupled with PHA granule-mediated polymerization and DTNB. The settings on record: for absorbance at 412 nm: 0.2 mM crotonyl-CoA, 1 mM DTNB, 5 μl PHA granule fraction, 100 mM Tris-HCl pH 7.8, FIG. 4; for stereoselectivity of the hydration reaction: concluded from the CoA-SH release with PHA granule fraction and DTNB. In kind it is biochemical. An excerpt: FIG. 4 The result of investigating the stereoselectivity of PhaJ1, PhaJ2 and PhaJ3 by the conjugation of the enoyl-CoA hydratase-mediated hydration reaction and the PHA granules-mediated polymerization reaction. (A) PhaJ1, (B) PhaJ2, and (C) PhaJ3; dark square: purified enzyme added, open triangle: no purified enzyme added.
In the above measurement of enoyl-CoA hydratase activity, no findings can be obtained on stereoselectivity at the addition of water to the double bond. Thus, the stereoselectivity of the hydration reaction by PhaJ1, PhaJ2 and PhaJ3 was investigated as follows. From the cells of C. necator that accumulated PHA, a water-insoluble PHA granule fraction can be prepared, but PHA synthetic synthase is bound to the surface of the PHA granules. This PHA synthase specifically polymerizes (R)-3-hydroxyacyl-CoA and releases CoA-SH. Thus, when both of the PHA granule fraction and 5,5′-dithiobis(2-nitrobenzoic acid) (DTNB) are present in the reaction solution for determining enoyl-CoA hydratase activity, COA-SH released together with the polymerization by PHA synthase reacts with DTNB to produce a yellow dye having a specific absorption at 412 nm, if the specificity of enoyl-CoA hydratase is (R)-form-specific. Conversely, when enoyl-CoA hydratase is (S)-form-specific, no yellow dye is produced.
Measurement was carried out according to the method described in Non-patent document 4. Thus, the PHA granule fraction was prepared from the cells of the C. necator wild type strain (the H16 strain) cultured for 36 hours in 100 ml of a medium containing fructose as a carbon source in a method described in Example 18. The cells were collected by centrifugation from the culture, and suspended in 3 ml of 50 mM Tris-HCl buffer (pH 7.5) followed by sonic-disruption. The supernatant obtained by low-speed centrifugation of the disruption liquid at 1,500×g, 5 min was further subjected to high-speed centrifugation at 15,000×g, 15 min. And the precipitate fraction was suspended in 3 ml of 50 mM Tris-HCl buffer (pH 7.5) to prepare a PHA granule fraction. Then, the purified enzyme was added to 100 mM Tris-HCl buffer (pH 7.8) containing 0.2 mM crotonyl-CoA, 1 mM DTNB and 5 μl PHA granule fraction (a total volume of 400 μl), and an increase in absorbance at 412 nm was measured.

Setting [8] is: other: PhaJ2, 100 mM Tris-HCl buffer (pH 7.8).
The mark [9] stands for this setting: other: PhaJ1, 100 mM Tris-HCl buffer (pH 7.8).

`CCCCC/C=C/C(=O)SCCNC(=O)CCNC(=O)[C@H](O)C(C)(C)COP(=O)(O)OP(=O)(O)OC[C@H]1O[C@@H](n2cnc3c(N)ncnc32)[C@H](O)[C@@H]1OP(=O)(O)O` [2-oxtenoyl-CoA (C8), 2-octenoyl-CoA]: the “Maximum velocity Vmax” value is recorded as 2.8 ± 0.5 × 10^2 U mg^−1 in series [1], 2.0 ± 0.1 × 10^3 U mg^−1 in series [2] and 6.7 ± 0.7 × 10^2 U mg^−1 in series [3]. For the same molecule, in series [1], the Km (as a rule, the concentration of substrate that gives half-maximal velocity) was determined as 38 ± 12 µM.

On to `C/C=C/C(=O)SCCNC(=O)CCNC(=O)[C@H](O)C(C)(C)COP(=O)(O)OP(=O)(O)OC[C@H]1O[C@@H](n2cnc3c(N)ncnc32)[C@H](O)[C@@H]1OP(=O)(O)O` [Crotonyl-CoA (C4), crotonyl-CoA], for which, in series [1], the “Maximum velocity Vmax” value is 1.3 ± 0.2 × 10^1 U mg^−1 and the Km worked out at 178 ± 46 µM. For the same molecule, the “Maximum velocity Vmax” value in series [2] was 1.4 ± 0.1 × 10^2 U mg^−1.

For `CCC/C=C/C(=O)SCCNC(=O)CCNC(=O)[C@H](O)C(C)(C)COP(=O)(O)OP(=O)(O)OC[C@H]1O[C@@H](n2cnc3c(N)ncnc32)[C@H](O)[C@@H]1OP(=O)(O)O` [2-hexenoyl-CoA (C6), 2-hexenoyl-CoA], the “Maximum velocity Vmax” value is given as 1.1 ± 0.1 × 10^2 U mg^−1 in series [1], 2.4 ± 0.3 × 10^3 U mg^−1 in series [2] and 7.0 ± 0.5 × 10^2 U mg^−1 in series [3]. Also, the Km in series [1] is 110 ± 16 µM.

B1: C. necator R form-specific enoyl-CoA hydratase PhaJ2 (phaJ2 gene, H16_B0397, SEQ ID NO: 3), wild type, recombinant N-terminal His tag (Cupriavidus necator H16) (protein)
chain: MKTYENIADLQPLVGEVIGTSEWLALDQARINTFADATGDHQWIHVDVERAKNGPFGAPIAHGFLTLSLLPAFTHSAYRIRNSSTGVNYGLDKVRFPAPVPVDSLLRAQFKLMSYEALENGGAQFKVEMMVERQGGSKPVCIAESILRRFP
In the case of B1, the Km came to 311 ± 15 µM in series [4] (setting [8]), 77 ± 14 µM in series [5] (setting [8]) and 23 ± 4 µM in series [6] (setting [8]).

B2: PhaJ2: purified His-tagged recombinant protein expressed in E. coli from phaJ2 (SEQ ID NO: 3) of C. necator; (R)-form-specific enoyl-CoA hydratase (protein)
chain: B1 chain
modifications: His tag; Cupriavidus necator R-hydratase gene (phaJ2); Cupriavidus necator strain H16 (R)-form- specific enoyl-CoA hydratase (R-hydratase, phaJ2), H16_B0397
In the case of B2, in series [7], the “absorbance at 412 nm” value is recorded as “increase” and the “stereoselectivity of the hydration reaction” value is on record as “(R)-form-specific”.

B3: C. necator R form-specific enoyl-CoA hydratase PhaJ1 (phaJ1 gene, H16_A1070, SEQ ID NO: 2), wild type, recombinant N-terminal His tag (Cupriavidus necator H16) (protein)
chain: T1 sequence (Q0KCR0 1-158)
Take B3: the figures for the Km in series [4] (setting [9]), in series [5] (setting [9]) and in series [6] (setting [9]) were 91 ± 5 µM, 41 ± 7 µM and 24 ± 5 µM, respectively.

B4: PhaJ1: purified His-tagged recombinant protein expressed in E. coli from phaJ1 (SEQ ID NO: 2) of C. necator; (R)-form-specific enoyl-CoA hydratase (protein)
chain: T1 sequence (Q0KCR0 1-158)
modifications: His tag; Cupriavidus necator; Cupriavidus necator strain H16 (R)-form- specific enoyl-CoA hydratase (R-hydratase, phaJ1), H16_A1070
B4: in series [7], the “absorbance at 412 nm” value is recorded as “increase” and the “stereoselectivity of the hydration reaction” value was “(R)-form-specific”.
